From paper PMC10167355, “Optimized spirooxindole-pyrazole hybrids targeting the p53-MDM2 interplay induce apoptosis and synergize with doxorubicin in A549 cells” (Scientific Reports, 2023)
Entries after “also recorded” stand apart in the source; their conditions may differ.

Columns and labels:
MDM2 = experiment: Western blot of MDM2 level in A549 cells; assay type: cell-based, human
Method: (§1) A549 cells were treated with different concentrations of the molecules as indicated. Cell extracts were prepared as described. Ten-20 μg of total proteins were resolved on 4–15% Mini protean TGX precast gels (Bio-Rad) and transferred to nitrocellulose membrane using 1704158 Trans-Blot Turbo Mini NC Transfer Packs (Bio-Rad) in a Trans-Blot Turbo apparatus (Bio-Rad). Membranes were blocked with 5% non-fat dry milk in 0.1% Tween-20 in PBS for 1 h, then incubated for 1 h at room temperature or overnight at 4 °C with the appropriate primary antibody. The following antibodies were employed: anti-p53 (DO-1, sc-126, Santa Cruz Biotechnology, 1:20.000), anti-p21 (2946, Cell Signaling, 1:2000), anti-MDM2 (SMP14, sc-965, Santa Cruz Biotechnology, 1:200), anti β-actin (AC-74, Sigma-Aldrich, 1:30.000); secondary anti-mouse IgG peroxidase conjugate (A9044, Sigma–Aldrich, 1:10.000) and secondary anti-rabbit peroxidase conjugate (A9169, Sigma-Aldrich, 1: 12.000). Detection was carried out with ECL FAST PICO (ECL-1002, Immunological Sciences, Roma, Italy). Chemiluminescence was analysed by Alliance LD, UVITEC Cambridge (Cambridge, UK).

p21 = experiment: Western blot of p21 level in A549 cells; assay type: cell-based, human; conditions: A549
Method: as §1

activated PBL = experiment: MTT assay on normal PBL activated with PHA and recombinant IL-2; assay type: cell-based; conditions: Homo sapiens, mean ± SD of 4–6 IC50 values
Method: (§2) Human tumor cell lines A2780 [ovary, adenocarcinoma, accession number HTL98008, obtained from Interlab Cell Line Collection (ICLC), Genova, Italy], A549 (lung, carcinoma, HTL03001, ICLC), MDA-MB-453 (breast, carcinoma, HTL01013, ICLC), and HepG2 (liver, carcinoma, HB-8065, American Type Culture Collection, Rockville, MA, USA ) were plated at 1.4 × 10^4/ml, 0.65 × 10^4/mL, 4.7 × 10^4/mL, and 1.0 × 10^4/mL, respectively, in 180 μL complete medium (RPMI 1640 for A2780 and A549 and DMEM for MDA-MB-453 and HepG2) into flat-bottomed 96-well microtiter plates. After 6–8 h cells were treated with 20 μL containing five 1:10 fold concentrations of our compounds diluted in FCS containing 3% DMSO. As normal non-cancer cell targets we used peripheral blood lymphocytes obtained from three healthy volunteers, isolated by gradient centrifugation (Lympholyte-H Cell Separation Media, EuroClone, Pero, MI, Italy) and stimulated with 1% phytohemagglutinin and 100 U/ml recombinant IL-2. One week after stimulation cells were ready for use at 15,000/well.
In both cases, after 72 h treatment, the MTT assay was applied as described elsewhere. […] IC100 and IC75 were extrapolated from the mean concentration–response curves.

p53 = experiment: Western blot of p53 level in A549 cells; assay type: cell-based, human
Method: as §1

A549 cells = experiment: Annexin-V-FITC / propidium iodide apoptosis assay; assay type: cell-based, human; conditions: A549, compounds at their specific IC75s, three days
Method: The induction of apoptosis was evaluated in A549 cells characterized by wild-type p53 and MDM2 proteins. They were plated at the opportune concentration (see above) into 25 cm^2 flasks in 10 mL complete medium. After 6–8 h the compounds were added at their specific IC75s, as previously calculated by the MTT assay.
All floating and adherent cells were harvested three days later, washed with normal saline buffer, and apoptosis determined by double staining with Annexin-V-FITC and propidium iodide (PI) (rh AnnexinV/FITC Kit, Bender MedSystem GmbH, Vienna, Austria). Briefly, 0.5 × 10^6 cells were resuspended in binding buffer 1× and stained with 5 μL of Annexin-V-FITC. After 10 min incubation 10 μL of PI were added and samples incubated for 5 min. Samples were immediately analyzed using a Flow Cytometer (FACScan, BD Biosciences, Milano, Italy) with dedicated software.

[1] = tested on: MDA-MB-453 (breast; mutant p53); experiment: MTT antiproliferative assay, MDA-MB-453; assay type: cell-based; conditions: Homo sapiens; MDA-MB-453, MTT, 72 h treatment, mean ± SD of 5–6 data
Method: as §2
In both cases, after 72 h treatment, the MTT assay was applied as described elsewhere. The IC50 values were calculated from the analysis of single concentration–response curves, each final value is the mean of 5–6 experiments. IC100 and IC75 were extrapolated from the mean concentration–response curves.

[2] = A549, drug concentration equivalent to IC75 (30 µM), fold over mock
[3] = A549, 0.2 µM derivative alone or 14 µM doxorubicin alone
[4] = A549, 0.2 µM derivative plus 14 µM doxorubicin

Cc1c(C(=O)C2C(c3ccc(C(F)(F)F)cc3)C3CSCN3C23C(=O)Nc2ccccc23)cnn1-c1ccccc1 (stereo not drawn) [8k, 6'-(5-Methyl-1-phenyl-1H-pyrazole-4-carbonyl)-7'-(4-(trifluoromethyl)phenyl)-1',6',7',7a'-tetrahydro-3'H-spiro[indoline-3,5'-pyrrolo[1,2-c]thiazol]-2-one]
MDM2 modulation, dose–response (MDM2; A549, 24 h, 0.01, 0.1, 1, 10 µM): induced MDM2 down regulation at any concentration; also recorded: dose-dependent down regulation of MDM2
MDM2 level (MDM2; [2]): downmodulated MDM2; also recorded: clear down modulation; also recorded: down regulation of MDM2
MDM2 level, single agent (MDM2; [3]): slight but not significant MDM2 increase
MDM2 level, combined treatment compared to doxorubicin alone (MDM2; [4]): no further increases
p21 level, single agent (p21; 0.2 µM derivative alone or 14 µM doxorubicin alone): did not increase
p21 level, combined treatment compared to doxorubicin alone (p21; 0.2 µM derivative plus 14 µM doxorubicin): no further increases
melting point: 138 to 139 °C
IC50 (activated PBL; PBL A): 49.8 ± 3.2 µM
IC50 (activated PBL; PBL B): 55.3 ± 1.4 µM
IC50 (activated PBL; PBL C): 50.9 ± 1.2 µM
p53 level (p53; [2]): did not induce any changes; also recorded: did not induce p53
p53 level, single agent (p53; [3]): did not increase
p53 level, combined treatment compared to doxorubicin alone (p53; [4]): no further increases
apoptotic activity (A549 cells): highly significant apoptotic activity; also recorded: considerable high level of apoptosis
IC50 [1]: 21.4 µM
